Results from patent US6635631B2, “Iron compounds, compositions, methods of making the same and uses thereof” (Vitra Pharmaceuticals, Ltd., priority 1995, dated 2003).
“And” between values parts separate entries of the source, which are not always exact repeats. Equal entries are not always repeated.

How the values were obtained:
[1] = Effect on iron absorption in vivo of maltol as a diet supplement (liver iron); parameters: species or system Male Wistar rats; details: for Liver Fe: rats fed maltol 50 mg/kg by gavage on alternate days, individual animals 1-6; for Liver Fe, MEAN: rats fed maltol 50 mg/kg
Protocol: Male Wistar rats, housed in polyethylene cages, initially weighing 70-80 grams were given a normal powder diet and water ad libitum for two weeks prior to treatment with maltol by gavage. Provided the animal was showing normal growth, treatment by gavage with maltol at 50 mg/kg was commenced and continued on alternate days for a further two weeks. At the end of the experimental period the animals were sacrificed, the livers were excised, mass determined and the sub cellular fraction assayed for iron be electrothermal atomic absorption. […]. The iron content of the diet is 240 mg/kg of food and the daily consumption of the rats is approximately 20 g which contains 4.8 mg as iron. The content of maltol in the diet is approximately 10 mg which is a ratio of iron/maltol of 4.8/10.0 which is approximately a 1:1 molar ratio (actual 1:1 is 4.5/10/0).
The liver content and concentration of iron in the sub cellular fraction were compared with the control group fed the same diet over the month, but without maltol.

[2] = In vivo test in man: ICPOES analysis for iron in serum; details: for Iron concentration [Fe] (s.d.) in serum: man, with 10% excess maltol
Source text: A composition of the invention comprising ferric maltol chloride ([FeM]^++Cl2−) ie. a 1:1 iron:hydroxypyrone complex together with a small (10%) excess of moltol (uncomplexed hydroxypyrone).

[3] = pH and stability of solutions of the complexes (description); format: physicochemical; details: for stability in solution: buffered pH of 7
[4] = Tests to determine optimum pH and molar ratios of iron:hydroxypyrone for synthesis of the 1:1 complex; format: physicochemical; details: pH 1-2
Protocol: Further tests to determine the optimum pH and molar ratios of iron:hydroxypyrone for synthesis of the 1:1 complex were carried out using iron:hydroxypyrone (maltol) ratios of 1:1.1, 1:1.15 and 1:1.25. For each ratio concentrations of 1M, 0.1M and 0.01M were tested. In the tests iron was used in an aqueous form.

[5] = Solubility of iron complexes and mixtures (description); format: physicochemical; details: for solubility relative to the 1:3 iron/hydroxypyrone molar ratio complex: 1:1 complexes
[6] = system: red blood cell; assay: Initial toxicity studies: red blood cell haemolysis; format: cell-based; details: liquid formulations
[7] = In vivo test in man: plasma iron concentration by ICP after oral ferric monomaltol citrate; details: time 0 mins (resting value)
Protocol: A composition of the invention comprising ferric monomaltol citrate with 30 mg as iron in 5 ml of water was administered orally to a person who had fasted for 24 hours. The plasma iron concentration in the subject's bloodstream was determined by the ICP [inductively coupled plasma, (Machine Jobin Yvonne Modol 20)] technique which determines the emission spectra of elements by optical spectrometry when samples are subjected to a very hot flame. The technique is very sensitive and the accuracy and precision is less than +or −1%.

[8] = Stability of the 1:1 molar ratio complex of iron and hydroxypyrone (visual precipitates, UV-V spectroscopy); format: physicochemical
Protocol: Various solutions of iron (III),and hydroxypyrone (ethylmaltol) were buffered to pH 7 with 50 mM morpholine propane sulphonate (MOPS) 50 mM, to pH 5 with sodium acetate (50 mM) and to pH 3 with glycine (50 mM). Iron III nitrate 9 H2O was used as a source of iron.

## Cc1occc(=O)c1O [Maltol, 3-hydroxy-2-methyl-4-pyrone]
[1]; iron concentration, µg per g liver
  Liver Fe: 118.8 µg/g and 113.2 µg/g and 87.3 µg/g and 165.8 µg/g and 149.2 µg/g and 123.4 µg/g
[1]; total iron, mg per liver
  Liver Fe: 1.44 mg/liver and 1.14 mg/liver and 0.86 mg/liver and 1.87 mg/liver and 1.69 mg/liver and 1.25 mg/liver
[1]; mean of 6 animals (control 1.06 ± 0.25)
  Liver Fe, MEAN: 1.38 ± 0.37 mg/liver
[1]; mean of 6 animals (control 120.1 ± 30.2)
  Liver Fe, MEAN: 126.3 ± 27.7 µg/g
[1]; rats, maltol 50 mg/kg by gavage
  change in liver iron content versus control: small but significant increase

## Cc1occc(=O)c1[O-].[Cl-].[Cl-].[Fe+3] [ferric maltol chloride]
[2]; time 0 min, n = 2
  Iron concentration [Fe] (s.d.) in serum: 1188.81 (17.57) ppb
[2]; time 20 min, n = 2
  Iron concentration [Fe] (s.d.) in serum: 1387.66 (63.08) ppb
[2]; time 60 min, n = 2
  Iron concentration [Fe] (s.d.) in serum: 1600.62 (115.83) ppb
[2]; time 120 min, n = 1
  Iron concentration [Fe] (s.d.) in serum: 1312.74 (0) (n = 1) ppb

## O=S(=O)([O-])[O-].[Fe+2] [ferrous sulphate, reference compound]
[3]
  stability in solution: precipitate very rapidly

## Cc1occc(=O)c1[O-].[Fe+3] [ferric monomaltol]
[4]
  proportion of the solution that comprises the 1:1 complex: ~80%
[2]; in vivo, po
  iron uptake: taken up well
[5]
  solubility relative to the 1:3 iron/hydroxypyrone molar ratio complex: approximately ten times more soluble
[5]; pH 1-2
  solubility: very soluble
[3]
  stability in solution: stability for extended periods (for example six months)
[3]; solution
  natural pH: approximately 2.8
[6]
  red blood cell haemolysis and breakdown: do not cause red blood cell haemolysis and red blood cell breakdown

## Cc1occc(=O)c1[O-].O=C([O-])CC(O)(CC(=O)O)C(=O)[O-].[Fe+3] [ferric monomaltol citrate]
[7]; 30 mg as iron in 5 ml water, fasted 24 hours
  iron conc (plasma): 1.2 µg/mL
[7]; 30 mg as iron
  iron conc (plasma): 21.8 µmol/L

## CCc1occc(=O)c1[O-].[Fe+3] [iron ethyl maltol]
[8]; 0.1M, 0.01M and 0.001M, pH 3, 5 and 7
  stability of solutions: stable for up to two months
[8]; wide concentration range, up to pH 7
  formation of ferric triethylmaltol (1:3 complex): no ferric triethylmaltol is found even at pH 7
[5]
  solubility relative to the 1:3 iron/hydroxypyrone molar ratio complex: approximately ten times more soluble
